Measured values reported in patent publication US20240246931A1, “COMPOUNDS AS PD1/PD-L1 INHIBITORS AND METHODS THEREOF” (JUBILANT PRODEL LLC, priority 2021, published 2024).
Where two headings read alike, the source gives them in different places.

Assays:
[1] = Metabolic stability in mouse liver microsomes; format: in vitro ADME; conditions: mouse liver microsomes 1.0 mg/mL, compound 1 μM, NADPH, second number of HLM/MLM cell
Description: (§1) Metabolic Stability in Liver Microsomes
(§2) The purpose of this experiment is to measure the metabolic half-life of NCEs in sub-cellular fractions such as human liver microsomes (HLM) or mouse liver microsomes (MLM). This provides an in vitro means to calculate intrinsic hepatic clearance, and to support the prediction of human pharmacokinetics. This approach has been successfully utilized at early phase of drug discovery projects, to provide SAR input for reducing metabolic instability and for predicting in vivo hepatic clearance.
(§3) Procedure: Potassium phosphate buffer (66.7 mM, pH 7.4) containing liver microsomes (mouse and human) (1.0 mg/mL) was pre-incubated separately with compound (1 μM) and positive control (verapamil, 1 μM) in a 37° C. water bath for 5 min. The reactions were initiated by adding 20 μL of 10 mM NADPH. Reactions without NADPH (0 and 30 min) were also incubated to rule out non-NADPH metabolism or chemical instability in the incubation buffer. All reactions were terminated using 200 μL of ice-cold acetonitrile containing internal standard at 0, 5, 15 and 30 min. The vials were centrifuged at 3000 rpm for 15 min. The supernatants thus obtained were analyzed on LC-MS/MS to monitor the disappearance of test compound.

PD-1/PD-L1 interaction = biological target: T1, PD-1/PD-L1 interaction (Homo sapiens, UniProt Q9NZQ7); assay: PD-1/PD-L1 HTRF binding assay (CisBio kit); conditions: HTRF PD1/PD-L1 inhibition assay
T1 construct: purchased CisBio 63ADK000CPAPEG
Procedure, shortened: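 HTRF kit assay: compound was preincubated 15 min with tagged PD-L1 and PD-1 proteins, then Eu-cryptate and XL665 anti-tag antibodies were added for 1 h at room temperature. Readout was the 665/620 nm ratio ×10^4. IC50 was binned as A <100 nM, B 100–500 nM, C >500 nM.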

[2] = Metabolic stability in human liver microsomes; format: in vitro ADME; conditions: human liver microsomes 1.0 mg/mL, compound 1 μM, NADPH, first number of HLM/MLM cell
Description: as §1, §2, §3

[3] = Brain exposure study in mice by IV route; format: in vivo; conditions: male, Balb/c, mouse; for Kp at 0.5 h: brain/plasma, read-out: Brain/Plasma ratio
Description: Institutional Animal Ethical Committee (IAEC) of Jubilant Biosys (IAEC/JDC/2019/188R (for Mice) and IAEC/JDC/2019/189R (for Rat) nominated by CPCSEA (Committee for the Purpose of Control and Supervision of Experiments on Animals) approved the mice and rat pharmacokinetic experiments. Male Balb/c mice (˜6-8 weeks old with body weight range of 22-25 g) and male SD rats (6-8 weeks old with body weight range of 200-250 g) were procured from Vivo Biotech, Hyderabad, India. Animals were quarantined in Jubilant Biosys Animal House for a period of 7 days with a 12:12 h light: dark cycles, and prior to the study the animals were stratified as per body weight.
Procedure for Mice: Intravenous pharmacokinetics study was done at doses of 5, 10 mg/kg respectively at dose volume 5 mL/kg for IV route. Sparse sampling was done and at each time point three mice were used for blood sampling (˜100 μL) were collected from retro-orbital plexus at 0.083 (Only for IV) and 24 h. Blood samples collected in tubes containing K2 EDTA as anticoagulant and centrifuged for 5 min at 10,000 rpm in a refrigerated centrifuge (Biofuge, Heraeus, Germany) maintained at 4° C. for plasma separation. Group I (IV) received compound by intravenously by tail vein at […] in solution formulation. Blood concentration-time data of compound was analyzed by non-compartmental method using Phoenix WinNonlin Version 8.1.
Brain Exposure Study in Mice
The mice were placed in isoflurane anesthesia chamber; following complete anesthesia (3-5% isoflurane) blood sample (0.5 mL) was collected from retro-orbital plexus using mice capillary.
The mice were sacrificed by cervical dislocation. The dorsal surface of the skull was peeled away from the brain using bone cutter, dura matter was gently removed from surface of brain with help of forceps. Brain was gently taken out away from the head and placed in PBS buffer to remove blood. Brain was placed on blotting paper to remove the blood spots and transferred in pre-labelled tube. The isolated brain was weighed and homogenised using 5× volume of phosphate buffer saline (pH-7.4). During homogenization the brain homogenate was kept in ice till sample processing. The homogenate was processed by specified extraction process and analyzed by LC-MS/MS.
Evaluation of Brain Exposure Data by IV Route

T1 sequence (Q9NZQ7 19-238 limits assumed): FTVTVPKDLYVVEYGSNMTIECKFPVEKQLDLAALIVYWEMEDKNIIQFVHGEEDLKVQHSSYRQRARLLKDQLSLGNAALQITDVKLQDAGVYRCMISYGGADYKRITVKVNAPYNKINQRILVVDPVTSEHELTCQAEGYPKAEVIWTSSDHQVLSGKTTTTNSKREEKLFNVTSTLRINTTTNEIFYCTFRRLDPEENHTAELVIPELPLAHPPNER

Row | MLM % remaining @ 30 min [1] [%] | IC50 (PD-1/PD-L1 interaction) [nM] | HLM % remaining @ 30 min [2] [%] | concentration at 0.5 h ([3]; brain, 10 mg/kg, 10 mpk, read-out: Brain (ng/g) Mean) [ng/g] | Kp at 0.5 h ([3]; 10 mg/kg, 10 mpk) | concentration at 0.5 h ([3]; plasma, 10 mg/kg, 10 mpk, read-out: Plasma (ng/mL) Mean) [ng/mL] | SMILES | concentration at 0.5 h ([3]; brain, 5 mg/kg, 5 mpk, read-out: Brain (ng/g) Mean) [ng/g] | Kp at 0.5 h ([3]; 5 mg/kg, 5 mpk) | concentration at 0.5 h ([3]; plasma, 5 mg/kg, 5 mpk, read-out: Plasma (ng/mL) Mean) [ng/mL]
1 | 84 | < 100 | 91 | 11600 | 12.2 | 949 | Cc1c(COc2cc(OCCF)c(CN3CCCC[C@H]3CO)c3c2CCC3)cccc1-c1ccccc1 [Example 27, (S)-(1-((5-(2-fluoroethoxy)-7-((2-methyl-[1,1′-biphenyl]-3-yl)methoxy)-2,3-dihydro-1H-inden-4-yl)methyl)piperidin-2-yl)methanol] | – | – | –
2 | 84 | < 100 | 78 | – | – | – | Cc1c(COc2cc(OCc3cccc(C(N)=O)c3)c(CN3CCC[C@H]3CO)c3c2CCC3)cccc1-c1ccccc1 [Example 38, (S)-3-(((4-((2-(hydroxymethyl)pyrrolidin-1-yl)methyl)-7-((2-methyl-[1,1′-biphenyl]-3-yl)methoxy)-2,3-dihydro-1H-inden-5-yl)oxy)methyl)benzamide] | – | – | –
3 | 15 | < 100 | 33 | – | – | – | Cc1c(COc2cc(OCc3cc(C#N)c[n+]([O-])c3)c(CN3CCC[C@H]3CO)c3c2CCC3)cccc1-c1ccccc1 [Example 44, (S)-3-cyano-5-(((4-((2-(hydroxymethyl)pyrrolidin-1-yl)methyl)-7-((2-methyl-[1,1′-biphenyl]-3-yl)methoxy)-2,3-dihydro-1H-inden-5-yl)oxy)methyl)pyridine 1-oxide] | – | – | –

Row | SMILES | MLM % remaining @ 30 min [1] [%] | IC50 (PD-1/PD-L1 interaction) [nM] | HLM % remaining @ 30 min [2] [%] | concentration at 0.5 h ([3]; brain, 10 mg/kg, 10 mpk, read-out: Brain (ng/g) Mean) [ng/g] | Kp at 0.5 h ([3]; 10 mg/kg, 10 mpk) | concentration at 0.5 h ([3]; plasma, 10 mg/kg, 10 mpk, read-out: Plasma (ng/mL) Mean) [ng/mL] | concentration at 0.5 h ([3]; brain, 5 mg/kg, 5 mpk, read-out: Brain (ng/g) Mean) [ng/g] | Kp at 0.5 h ([3]; 5 mg/kg, 5 mpk) | concentration at 0.5 h ([3]; plasma, 5 mg/kg, 5 mpk, read-out: Plasma (ng/mL) Mean) [ng/mL]
4 | Cc1c(COc2cc(OCCCCF)c(CN3CCCC[C@H]3CO)c3c2CCC3)cccc1-c1ccccc1 [Example 31, (S)-(1-((5-(4-fluorobutoxy)-7-((2-methyl-[1,1′-biphenyl]-3-yl)methoxy)-2,3-dihydro-1H-inden-4-yl)methyl)piperidin-2-yl)methanol] | 79 | < 100 | 65 | – | – | – | 2450 | 4.9 | 501
